Counter-ions that a name gives are not always drawn. Like-named read-outs stand apart in the source and are kept apart here.
Experiments:
[1] = molecular target: native rat brain NR2B receptors (Rattus norvegicus (Rat), UniProt P35439+Q00960); experiment: NR2B radioligand binding assay in rat brain using [3H] (E)-N1-(2-methoxybenzyl)-cinnamidine
Procedure: This example describes an NR2B receptor binding assay in rat brain using [^3H] […] The binding assay method was adapted from a previously described cellular human NR1a/NR2B cloned receptor assay (Kiss et al. Neurochem. Internatl. 2005, 46:453-464) to rat brain tissue. This assay serves as a selective measure of NR2B receptor binding activity in native rat brain receptors. Briefly, the brains of male Wistar rats were homogenized (Polytron) before centrifugation at 40,000×g for 15 minutes at 4° C. After 2 washes, the final pellet was homogenized and stored at −80° C. The protein concentration was determined by Bradford assay. [^3H] […] Non-specific binding was assessed in the presence of excess (10 μM) (E)-N1-(2-nethoxybenzyl)-cinnamidine.
Test compounds were solubilized at 10 mM in DMSO. Then the dilutions were performed with a constant solvent concentration (1% DMSO) in the assay. After incubation for 4.5 hours at room temperature, the assays were filtered on GF/3 filters pretreated with 0.3% (v/v) polyethylenimine (PEI) with a Packard system. The experiment was performed in duplicate (n=2).

[2] = molecular target: human NR1/NR2B (Homo sapiens (Human), UniProt Q05586+Q13224); experiment: NR2B antagonist activity: calcium influx (Fluo-4) assay in HEK293 cells; format: cell-based
Chain of human NR1/NR2B (Q13224 27-1484, other chains not shown): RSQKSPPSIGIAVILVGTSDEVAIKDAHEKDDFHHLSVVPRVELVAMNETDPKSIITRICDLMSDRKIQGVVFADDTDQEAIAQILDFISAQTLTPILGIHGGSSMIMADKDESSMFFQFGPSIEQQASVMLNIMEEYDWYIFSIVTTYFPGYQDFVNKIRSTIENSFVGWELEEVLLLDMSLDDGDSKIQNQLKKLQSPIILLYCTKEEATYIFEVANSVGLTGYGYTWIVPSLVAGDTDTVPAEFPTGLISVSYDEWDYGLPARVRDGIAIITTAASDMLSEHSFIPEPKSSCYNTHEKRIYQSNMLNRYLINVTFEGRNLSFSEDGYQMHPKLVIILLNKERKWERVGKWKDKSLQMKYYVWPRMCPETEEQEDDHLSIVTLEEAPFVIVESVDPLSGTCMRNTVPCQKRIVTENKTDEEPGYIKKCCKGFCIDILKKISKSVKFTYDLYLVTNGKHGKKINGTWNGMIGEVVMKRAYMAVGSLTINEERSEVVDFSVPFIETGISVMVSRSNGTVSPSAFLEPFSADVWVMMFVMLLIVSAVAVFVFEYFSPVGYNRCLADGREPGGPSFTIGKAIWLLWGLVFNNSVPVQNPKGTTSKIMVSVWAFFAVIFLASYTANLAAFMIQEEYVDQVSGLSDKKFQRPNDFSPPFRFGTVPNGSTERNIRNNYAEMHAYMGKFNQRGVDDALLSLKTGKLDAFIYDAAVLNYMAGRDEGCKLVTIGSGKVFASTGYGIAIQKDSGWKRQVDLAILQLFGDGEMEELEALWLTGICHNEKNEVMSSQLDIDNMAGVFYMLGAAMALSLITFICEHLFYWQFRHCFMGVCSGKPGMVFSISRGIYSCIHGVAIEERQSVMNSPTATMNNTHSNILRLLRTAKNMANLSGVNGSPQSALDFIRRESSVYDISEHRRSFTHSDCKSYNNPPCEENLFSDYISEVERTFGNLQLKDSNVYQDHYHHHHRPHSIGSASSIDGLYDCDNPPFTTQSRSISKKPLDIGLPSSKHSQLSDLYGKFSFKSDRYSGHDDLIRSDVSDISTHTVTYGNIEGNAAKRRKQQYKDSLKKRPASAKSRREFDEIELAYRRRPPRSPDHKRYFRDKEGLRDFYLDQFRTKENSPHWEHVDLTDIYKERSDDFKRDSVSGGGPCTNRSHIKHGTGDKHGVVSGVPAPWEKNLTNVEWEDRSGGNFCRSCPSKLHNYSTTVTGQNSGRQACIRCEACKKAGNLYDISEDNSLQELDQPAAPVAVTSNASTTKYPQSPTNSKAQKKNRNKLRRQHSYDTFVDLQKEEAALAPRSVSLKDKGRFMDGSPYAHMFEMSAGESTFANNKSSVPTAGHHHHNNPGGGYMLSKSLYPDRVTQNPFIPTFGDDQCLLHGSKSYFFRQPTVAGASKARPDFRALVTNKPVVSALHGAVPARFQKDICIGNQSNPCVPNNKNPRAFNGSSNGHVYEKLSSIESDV
Procedure: Activation of the NR2A or NR2B subtype of NMDA receptor with glutamate as an agonist and glycine co-agonist on these cells results in calcium influx, which can be monitored with fluorescent indicator Fluo-4.
For experiments, the cells were seeded onto poly-D-lysine-coated 96-well black plates with clear bottom (Corning) at a density of ˜50,000 cells/well. After overnight culture, the growth medium was removed from the wells and the cells were incubated at 37° C. for 60 minutes in Hanks buffer containing 4 μM fluo-4-AM (Invitrogen) and 0.1% bovine serum albumin (BSA). After dye-loading, the cells were washed three times with Hanks buffer and incubated for 10 minutes at room temperature with various concentrations of test compounds prepared in Hanks buffer with 0.1% BSA. The cell plates were placed onto an FDSS Cell fluorescence reader (Hamamatsu). After 20 seconds of reading background fluorescence, agonist glutamate at final 100 µM and co-agonist glycine at final 50 μM were added to the cells to activate the receptor, and the resulting fluorescence changes were recorded and quantified. Based on the changes in fluorescence intensity, the pharmacological effect of test compounds was analyzed and the IC50 values derived from a non-linear least squares fitting of the concentration-dependent response to a standard logistic equation using Prism (Graphpad Software, Inc.): Amplitude=Max Amplitude/(1+(IC50/[antagonist])^n).

[3] = molecular target: hERG channel (Homo sapiens (Human), UniProt Q12809); experiment: hERG channel inhibition, whole cell patch clamp in HEK293 cells; format: cell-based; settings: Table 1.3A
Chain of hERG channel (Q12809 whole entry): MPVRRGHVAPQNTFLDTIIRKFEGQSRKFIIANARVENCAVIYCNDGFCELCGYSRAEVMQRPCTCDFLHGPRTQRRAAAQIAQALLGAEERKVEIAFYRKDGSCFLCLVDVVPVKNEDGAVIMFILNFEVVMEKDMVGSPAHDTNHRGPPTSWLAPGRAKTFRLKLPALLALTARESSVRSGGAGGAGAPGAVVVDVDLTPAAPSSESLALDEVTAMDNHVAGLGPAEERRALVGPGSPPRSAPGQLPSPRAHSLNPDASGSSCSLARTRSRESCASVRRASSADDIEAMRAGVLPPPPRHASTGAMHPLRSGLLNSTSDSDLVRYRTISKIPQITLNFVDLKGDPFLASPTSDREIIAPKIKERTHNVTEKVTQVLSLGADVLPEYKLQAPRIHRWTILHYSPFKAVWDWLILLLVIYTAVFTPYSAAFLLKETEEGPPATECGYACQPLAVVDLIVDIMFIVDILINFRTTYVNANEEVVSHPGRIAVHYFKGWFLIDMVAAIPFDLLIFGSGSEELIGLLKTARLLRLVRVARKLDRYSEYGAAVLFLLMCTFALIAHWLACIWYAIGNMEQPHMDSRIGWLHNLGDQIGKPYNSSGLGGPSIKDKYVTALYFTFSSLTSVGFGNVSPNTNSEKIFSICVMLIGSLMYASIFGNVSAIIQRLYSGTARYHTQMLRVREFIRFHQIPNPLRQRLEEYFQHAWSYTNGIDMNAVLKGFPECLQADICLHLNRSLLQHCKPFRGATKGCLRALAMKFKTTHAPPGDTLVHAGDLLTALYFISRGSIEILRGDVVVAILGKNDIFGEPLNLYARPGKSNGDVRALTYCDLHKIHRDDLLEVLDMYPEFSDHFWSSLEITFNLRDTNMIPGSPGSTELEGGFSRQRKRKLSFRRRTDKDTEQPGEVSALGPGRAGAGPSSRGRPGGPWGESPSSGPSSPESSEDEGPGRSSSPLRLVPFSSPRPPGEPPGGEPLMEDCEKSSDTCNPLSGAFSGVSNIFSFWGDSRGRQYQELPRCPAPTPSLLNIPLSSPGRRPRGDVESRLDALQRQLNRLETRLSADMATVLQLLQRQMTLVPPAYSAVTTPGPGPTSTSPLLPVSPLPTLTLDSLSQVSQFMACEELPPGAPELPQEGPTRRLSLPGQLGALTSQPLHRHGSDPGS
Procedure: The assay was performed on hERG channel stably expressed in HEK293 cells. The cells were cultured at 37° C. in a humidified CO2 incubator in the growth medium consisting of DMEM, 10% fetal bovine serum and antibiotics. Prior to the assay, the cells were seeded onto a 12-mm PDL-coated glass coverslip and cultured in a 35-mm Petri dish. After 16 to 40 hours culture, the coverslip was transferred into the chamber of OctaFlow perfusion system (ALA Instrument) and under a constant flow of extracellular solution (140 mM NaCl, 4 mM KCl, 1 mM MgCl2, 2 mM CaCl2, 10 mM HEPES, 10 mM D-glucose, pH 7.35, osmolarity 290). Whole cell patch clamping was performed with a glass micropipette filled with intracellular solution (120 mM KCl, 1.75 mM MgCl2, 5.4 mM CaCl2, 10 mM HEPES, 10 mM EGTA, and 4 mM ATP-K2, pH 7.2, osmolarity 310). Giga-seal was maintained during the test. The voltage control and current measurement were carried out using Axon amplifier 700B, Digidata 1440A and CLAMPEX10 software (Molecular Devices). Whole-cell hERG currents were recorded following the Petroski protocol: the cell was held at −80 mV, and the voltage step jumped from −80 to 30 mV and stay for 2 seconds with a 20-millisecond prepulse at −40 mV. After depolarization, the voltage was decreased to −40 mV and stay for 2 seconds, and returned back to −80 mV. Test compound was applied by quartz capillary tubes tip (200 m inner diameter), and the flow rate was controlled at 2-3 mL/min with OctaFlow perfusion system. Different concentrations of the compound were applied to the cells for 5 minutes and the hERG current was measured three times before, during and after compound treatment. The data were analyzed using Clampfit 10 software (Molecular Devices) to generate IC50 values.

[4] = system: wild type mice (male NMRI); experiment: Marble Burying Test in wild type mice; format: in vivo, mouse; settings: for change in vivo at 3 mg/kg / change in vivo at 10 mg/kg / change in vivo at 30 mg/kg: Mus musculus, ip, read-out: Percent Change in marbles buried relative to vehicle
Procedure: Animals. Male NMRI mice (20-30 g body weight) were obtained from Janvier Labs (Le Genest-Saint Isle, France) and allowed to acclimate to the animal facility for at least 5 days. Twelve mice were studied per treatment group.
Compound formulation. The test compounds were prepared in a vehicle of 0.5% DMSO and 4% HP-β-CD, and administered orally (PO) or IP. The test compounds or vehicle were administered 20 minutes before the behavioral test described below. Clobazam (8 mg/kg IP), administered 30 minutes before the test, was used as the positive reference compound.
Clobazam was dispersed in 0.2% hydroxypropylmethylcellulose (HPMC) in physiological saline. Dosing volume was 10 mL/kg.
Testing procedure. The Marble Burying Test was conducted as previously described by Broekkamp et al. (Eur. J. Pharmacol. 1986, 126:223-229). Mice exposed to small novel objects (marbles) will bury them in the sawdust floor covering. Anxiolytics decrease the number of marbles buried at non-sedating doses. Mice were individually placed in transparent plastic cages (33×21×18 cm) with 5 cm of sawdust on the floor and 25 marbles grouped in the center of the cage. The cage was covered with an inverted plastic cage. Each test cage, together with the marbles, was impregnated with mouse odor before-hand by leaving 10 mice in the cage for 15 minutes. These mice then played no further role in the experiment. The number of marbles covered by sawdust (⅔ or more) was counted at the end of the 30-minute test. The test was performed blind (compounds versus vehicle).
Statistical analyses. Data were analyzed by comparing test compound-treated groups with the vehicle control group using the Kruskal-Wallis test followed by post-hoc Mann-Whitney U tests. Data comparing the reference compound with the vehicle were analyzed using the Mann-Whitney U test. A p value<0.05 was considered significant.

[5] = system: wild type mice (male C57Bl/6); experiment: Novelty Phobia Test in wild type mice; format: in vivo, mouse; settings: for Percent Change in Novel Object Number of Nose Touches relative to vehicle control: pre-test time 10 min; for pattern of the dose-response function for bouts of nose touching: mouse, in vivo
Procedure: Animals. Male C57Bl/6 mice (18-30 g body weight; 6-8 weeks of age) were obtained from Slaccas (Shanghai, China) and allowed to acclimate to the animal facility for 7 days. Mice were group housed in plastic cages (no more than 4 animals per cage) on wood shavings with nesting material. All animals had free access to food (M01-F, Slaccas) and water. The animal facility was maintained under artificial lighting between 7:00 AM and 7:00 PM in a controlled ambient temperature of 22-24° C. and relative humidity between 50-60%.
Compound formulation. The test compounds were prepared in a vehicle of DMSO and HP-β-CD, and administered IP or PO. The test compounds or vehicle were administered at various times (10-20 minutes) before the behavioral test described below. Dosing volume was 10 mL/kg.
Testing procedure. The behavioral testing apparatus was a rectangular black Plexiglas, 2-chambered box, with no top or bottom (50 cm long, 26 cm wide and 15 cm tall) and allowed for the simultaneous testing of 2 mice. The box was placed on a laboratory bench. The chambers of the testing box were cleaned and fresh paper chip bedding was added between tests. Mice were brought to the experiment room in their home cages on the day of testing. Behavioral tests were conducted between 10:00 AM and 1:00 PM in dim light. After drug administration, a mouse was placed into a test chamber and allowed to explore for 10 minutes. After this habituation period, a novel object (e.g., a toy ball of 3 cm in diameter with spikes) was introduced to the center of the chamber for 5 minutes. For the entire 15-minute test period, video was recorded for offline analysis with Any-maze Video Tracking software (Stoelting Co., Wood Dale, Ill.). The total distance traveled during the entire 15 minutes and the number of bouts that each mouse touched the novel object during the last 5 minutes were measured.
Statistical analyses. Data are presented as means and SEMs. Data were analyzed using one-way analysis of variance (ANOVA; Prism, GraphPad Software Inc., San Diego, Calif.), followed by the post-hoc Dunnett's test to compare test compound-treated groups with the vehicle control. A p value<0.05 was considered significant.

[6] = read-out: hNR2B IC50, Table 1.3A
[7] = Table 1.1A, read-out: NR2B IC50
[8] = Table 1.3A, read-out: hNR2B IC50
[9] = rat brain NR2B receptors, mean of replicates, read-out: Arithmetic Mean Ki

Chain of native rat brain NR2B receptors (Q00960 27-1482, other chains not shown): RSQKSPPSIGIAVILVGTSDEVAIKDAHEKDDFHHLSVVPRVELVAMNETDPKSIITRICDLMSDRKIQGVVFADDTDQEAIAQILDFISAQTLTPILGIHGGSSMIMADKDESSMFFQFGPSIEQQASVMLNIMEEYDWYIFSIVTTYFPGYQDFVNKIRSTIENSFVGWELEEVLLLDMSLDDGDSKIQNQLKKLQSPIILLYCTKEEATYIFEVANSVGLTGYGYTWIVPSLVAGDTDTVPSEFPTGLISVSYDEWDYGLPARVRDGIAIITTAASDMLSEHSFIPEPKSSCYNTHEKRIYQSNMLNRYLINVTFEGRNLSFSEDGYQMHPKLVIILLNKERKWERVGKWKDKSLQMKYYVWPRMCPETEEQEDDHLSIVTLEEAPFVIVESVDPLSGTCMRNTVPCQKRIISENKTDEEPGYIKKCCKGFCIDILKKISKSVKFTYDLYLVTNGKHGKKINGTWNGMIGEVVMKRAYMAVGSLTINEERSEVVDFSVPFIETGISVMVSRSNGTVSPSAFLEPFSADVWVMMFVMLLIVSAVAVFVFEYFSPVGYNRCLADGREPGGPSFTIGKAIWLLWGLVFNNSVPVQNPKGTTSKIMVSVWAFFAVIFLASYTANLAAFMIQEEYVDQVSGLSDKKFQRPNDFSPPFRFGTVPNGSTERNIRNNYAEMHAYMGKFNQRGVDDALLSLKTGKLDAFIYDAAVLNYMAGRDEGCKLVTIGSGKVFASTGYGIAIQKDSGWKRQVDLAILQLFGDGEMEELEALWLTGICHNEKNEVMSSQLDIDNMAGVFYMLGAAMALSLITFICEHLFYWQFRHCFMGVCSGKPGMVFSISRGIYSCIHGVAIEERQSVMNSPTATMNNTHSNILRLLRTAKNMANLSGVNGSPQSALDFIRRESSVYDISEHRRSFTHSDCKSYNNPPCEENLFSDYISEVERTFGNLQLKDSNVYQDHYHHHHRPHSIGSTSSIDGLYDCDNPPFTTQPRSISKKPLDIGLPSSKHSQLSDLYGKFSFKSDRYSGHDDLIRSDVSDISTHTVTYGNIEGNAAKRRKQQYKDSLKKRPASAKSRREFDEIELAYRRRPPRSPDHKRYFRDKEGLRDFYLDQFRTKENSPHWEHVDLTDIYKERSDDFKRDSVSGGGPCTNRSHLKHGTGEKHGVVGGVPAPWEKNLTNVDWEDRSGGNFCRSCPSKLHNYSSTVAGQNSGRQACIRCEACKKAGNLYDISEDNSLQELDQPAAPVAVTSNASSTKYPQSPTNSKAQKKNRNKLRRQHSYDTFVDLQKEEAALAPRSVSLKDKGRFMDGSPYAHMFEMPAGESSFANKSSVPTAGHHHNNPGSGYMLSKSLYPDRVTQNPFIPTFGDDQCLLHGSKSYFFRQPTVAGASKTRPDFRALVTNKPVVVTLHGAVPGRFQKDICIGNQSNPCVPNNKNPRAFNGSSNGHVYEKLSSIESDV

Work on COc1ccccc1CNC(=N)/C=C/c1ccccc1 [(E)-N1-(2-methoxybenzyl)-cinnamidine, reference compound] yielded a Ki ([1]; high affinity site, rat brain membranes, read-out: inhibition constant (Ki), mean) of 0.22 nM.
For Fc1ccc(C(F)(F)CN2CCC(Nc3ncnc4[nH]ccc34)CC2)nc1 [C-2^A′], the IC50 [2] was 124 nM.
Cc1ccc(C(F)(F)CN2CCC(Nc3ncnc4[nH]ccc34)CC2)nc1 [C-4^A′] showed an IC50 [2] of 35 nM and an IC50 [2, 6] of 35 nM.
FC(F)c1ccc(C(F)(F)CN2CCC(Nc3ncnc4[nH]ccc34)CC2)nc1 [C-6^A′] was tested, and the IC50 [2, 7] was 31 nM, the IC50 [2, 8] was 31 nM and the IC50 [3] was 6900 nM. It also gave a change in vivo at 3 mg/kg [4] of -23%, a change in vivo at 10 mg/kg [4] of -62% and a change in vivo at 30 mg/kg [4] of -100%.
For FCc1ccc(C(F)(F)CN2CCC(Nc3ncnc4[nH]ccc34)CC2)nc1 [C-7^A′], the IC50 [2] was 14 nM.
FC(F)Oc1ccc(C(F)(F)CN2CCC(Nc3ncnc4[nH]ccc34)CC2)nc1 [C-12^A′] showed a change in vivo at 3 mg/kg [4] of -14%, a change in vivo at 10 mg/kg [4] of -56% and a change in vivo at 30 mg/kg [4] of -100%. For the same molecule, the “bouts of nose touching of the novel object, efficacy” value ([5]; IP (C-11 also PO)) was “not efficacious”.
Fc1cc(Cl)cnc1C(F)(F)CN1CCC(Nc2ncnc3[nH]ccc23)CC1 [C-16^A′] showed an IC50 [2] of 47 nM, an IC50 [2, 6] of 47 nM and an IC50 [3] of 60000 nM.
In the case of Cc1cnc(C(F)(F)CN2CCC(Nc3ncnc4[nH]ccc34)CC2)c(F)c1 [C-17^A′], the IC50 [2] is reported as 44 nM.
With Fc1cc(C(F)(F)F)cnc1C(F)(F)CN1CCC(Nc2ncnc3[nH]ccc23)CC1 [C-18^A′] the IC50 [2, 7] was 84 nM.
Cc1ccc(C(F)(F)CN2CCC(N(C)c3ncnc4[nH]ccc34)CC2)nc1 [C-47^A′] gave an IC50 [2, 7] of 140 nM.
Cc1ccc(C(F)(F)CN2CCC(Nc3ncnc4[nH]ccc34)CC2)cn1 [C-128^A′] was tested, and the IC50 [2] was 89 nM and the IC50 [2, 6] was 89 nM.
Fc1ccc(C(F)(F)CN2CCC(Nc3ncnc4[nH]ccc34)CC2)cc1 [C-175^A′] was tested, and the IC50 [2] was 22 nM, the IC50 ([2]; read-out: NR2B IC50, Table 1.4A) was 22 nM and the IC50 [2, 6] was 22 nM. The “Percent Change in Novel Object Number of Nose Touches relative to vehicle control” value ([5]; IP, 3 mg/kg) was 25.1%, the “Percent Change in Novel Object Number of Nose Touches relative to vehicle control” value ([5]; IP, 10 mg/kg) was 139% and the “Percent Change in Novel Object Number of Nose Touches relative to vehicle control” value ([5]; IP, 30 mg/kg) was −88.1%. The “pattern of the dose-response function for bouts of nose touching” value [5] was “inverted U-shaped dose-response function”.
With FC(F)(CN1CCC(Nc2ncnc3[nH]ccc23)CC1)c1ccc(Cl)cc1 [C-176^A′] the IC50 [2] was 26 nM.
Molecule Cc1ccc(C(F)(F)CN2CCC(Nc3ncnc4[nH]ccc34)CC2)cc1 [C-177^A′] has an IC50 [2] of 27 nM.
FC(F)(F)c1ccc(C(F)(F)CN2CCC(Nc3ncnc4[nH]ccc34)CC2)cc1 [C-178^A′] showed an IC50 [2, 7] of 64 nM, an IC50 [2, 8] of 64 nM and an IC50 ([2]; Table 1.4A, read-out: NR2B IC50) of 64 nM. It also gave an IC50 [3] of 1600 nM, a change in vivo at 0.3 mg/kg ([5]; Mus musculus, ip, 20 min, IP, 0.3 mg/kg, pre-test time 20 min, read-out: Percent Change in Novel Object Number of Nose Touches relative to vehicle control) of -4.12% and a change in vivo at 1 mg/kg ([5]; Mus musculus, ip, 20 min, IP, 1 mg/kg, pre-test time 20 min, read-out: Percent Change in Novel Object Number of Nose Touches relative to vehicle control) of 50.3%. For the same molecule, the change in vivo at 3 mg/kg ([5]; Mus musculus, ip, 20 min, IP, 3 mg/kg, pre-test time 20 min, read-out: Percent Change in Novel Object Number of Nose Touches relative to vehicle control) was 110% and the “pattern of the dose-response function for bouts of nose touching” value [5] was “dose-dependent increases”.
Cc1cnc(C(F)(F)CN2CCC(Nc3ncnc4[nH]ccc34)CC2)cn1 [C-230^A′] was tested, and the IC50 [2] was 88 nM and the IC50 [2, 6] was 88 nM.
For Cc1ccc(COC(=O)N2CC[C@H](CNc3cnc(C#N)cn3)C(F)(F)C2)cc1 [E1-21.30^B′, (R)-4-methylbenzyl 4-(((5-cyanopyrazin-2-yl)amino)methyl)-3,3-difluoropiperidine-1-carboxylate], the Ki [1, 9] was 31 nM.
In the case of Cc1cnc(NC[C@H]2CCN(C(=O)OCc3ccc(Cl)cc3)CC2(F)F)cn1 [E1-21.33^B′, (R)-4-chlorobenzyl 3,3-difluoro-4-(((5-methylpyrazin-2-yl)amino)methyl)piperidine-1-carboxylate mesylate], the Ki [1, 9] is reported as 11 nM.
With Cc1cnc(NC[C@H]2CCN(C(=O)OCc3ccc(F)cc3)CC2(F)F)cn1 [E1-21.34^B′, (R)-4-fluorobenzyl 3,3-difluoro-4-(((5-methylpyrazin-2-yl)amino)methyl)piperidine-1-carboxylate mesylate] the Ki [1, 9] was 16 nM.
Molecule Cc1ccc(COC(=O)N2CC[C@H](CNc3ncc(C(F)(F)F)cn3)C(F)(F)C2)cc1 [E1-22.29^B′, (R)-4-methylbenzyl 3,3-difluoro-4-(((5-(trifluoromethyl)pyrimidin-2-yl)amino)methyl)piperidine-1-carboxylate methanesulfonate] has a Ki [1, 9] greater than 1000 nM.
In the case of O=C(OCc1ccc(F)cc1)N1CC[C@H](CNc2ccccn2)C(F)(F)C1 [E1-23.4^B′, (R)-4-fluorobenzyl 3,3-difluoro-4-((pyridin-2-ylamino)methyl)piperidine-1-carboxylate], the Ki [1, 9] is reported as 7.8 nM.
Work on Cc1ccc(COC(=O)N2CC[C@H](CNc3cccc(C)n3)C(F)(F)C2)cc1 [E1-23.32^B′, (+)-(R)-4-methylbenzyl 3,3-difluoro-4-(((6-methylpyridin-2-yl)amino)methyl)piperidine-1-carboxylate] yielded a Ki [1, 9] of 31 nM.
For CN1C(=O)CC(=O)N(c2ccccc2)c2cc(Cl)ccc21 [clobazam, Clobazam, reference compound], the “number of buried marbles, positive reference” value ([4]; 8 mg/kg IP, 30 minutes before the test, data not shown) was “significantly reduced the number of buried marbles”.

Source: patent US11752155B2, “Treatment of autism spectrum disorders, obsessive-compulsive disorder and anxiety disorders” (Rugen Holdings (Cayman) Limited, priority 2016, dated 2023)
